Measurements: PubChem BioAssay (NCI)
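Compound exposure: 48 hours, 5 concentrations, 96-well plates. GI50: concentration for 50% inhibition of growth. TGI is the concentration that stops growth completely.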

Key:
Experiment in all cases: NCI anticancer screen, dose series, 48 h
[1] = tested on: M19-MEL melanoma
[2] = tested on: DLD-1 colon
[3] = tested on: NCI-H522 lung
[4] = tested on: HT29 colon
[5] = tested on: SK-MEL-2 melanoma
[6] = tested on: UACC-257 melanoma
[7] = tested on: IGROV1 ovarian
[8] = tested on: SR leukemia
[9] = tested on: SNB-75 CNS
[10] = tested on: SF-295 CNS
[11] = tested on: SK-MEL-28 melanoma
[12] = tested on: OVCAR-5 ovarian
[13] = tested on: HCC-2998 colon
[14] = tested on: UO-31 renal
[15] = tested on: EKVX NSCLC
[16] = tested on: SN12C renal
[17] = tested on: KM12 colon
[18] = tested on: LXFL 529 NSCLC
[19] = tested on: RXF 393 renal
[20] = tested on: OVCAR-8 ovarian
[21] = tested on: HCT-15 colon
[22] = tested on: A549 NSCLC
[23] = tested on: CCRF-CEM leukemia
[24] = tested on: TK-10 renal
[25] = tested on: HCT-116 colon
[26] = tested on: UACC-62 melanoma
[27] = tested on: DMS 114 small cell lung
[28] = tested on: LOX IMVI melanoma
[29] = tested on: ACHN renal
[30] = tested on: HL-60(TB) leukemia
[31] = tested on: MALME-3M melanoma
[32] = tested on: DMS 273 small cell lung
[33] = tested on: OVCAR-3 ovarian
[34] = tested on: KM20L2 colon
[35] = tested on: COLO 205 colon
[36] = tested on: SK-MEL-5 melanoma
[37] = tested on: HOP-18 NSCLC
[38] = tested on: 786-0 renal
[39] = tested on: SW-620 colon
[40] = tested on: A498 renal
[41] = tested on: SF-268 CNS
[42] = tested on: K-562 leukemia
[43] = tested on: M14 melanoma
[44] = tested on: RPMI-8226 leukemia
[45] = tested on: HOP-92 NSCLC
[46] = tested on: SF-539 CNS
[47] = tested on: U251 CNS
[48] = tested on: SNB-78 CNS
[49] = tested on: NCI-H460 lung
[50] = tested on: CAKI-1 renal
[51] = tested on: HOP-62 NSCLC
[52] = tested on: NCI-H226 lung
[53] = tested on: OVCAR-4 ovarian
[54] = tested on: SK-OV-3 ovarian
[55] = tested on: MOLT-4 leukemia
[56] = tested on: SNB-19 CNS
[57] = tested on: T-47D breast
[58] = tested on: MDA-MB-231 breast
[59] = tested on: HS 578T breast
[60] = tested on: BT-549 breast
[61] = tested on: PC-3 prostate
[62] = tested on: MCF7 breast
[63] = tested on: RXF-631 renal
[64] = tested on: NCI-H23 lung
[65] = tested on: MDA-MB-435
[66] = tested on: DU-145 prostate

`Nc1ccn(CCO)c(=O)n1` was tested, and the TGI [1] was > 100 µM, the TGI [2] was > 100 µM and the TGI [3] was > 100 µM. The TGI [4] was > 100 µM, the TGI [5] was > 100 µM and the TGI [6] was > 100 µM. For the same compound, the TGI [7] was > 100 µM, the TGI [8] was > 100 µM and the TGI [9] was > 100 µM. For the same compound, the TGI [10] was > 100 µM, the TGI [11] was > 100 µM and the TGI [12] was > 100 µM. For the same compound, the TGI [13] was > 100 µM, the TGI [14] was > 100 µM and the TGI [15] was > 100 µM. For the same compound, the TGI [16] was > 100 µM, the TGI [17] was > 100 µM and the TGI [18] was > 100 µM. For the same compound, the TGI [19] was > 100 µM, the TGI [20] was > 100 µM and the TGI [21] was > 100 µM. The TGI [22] was > 100 µM, the TGI [23] was > 100 µM and the TGI [24] was > 100 µM. The TGI [25] was > 100 µM, the TGI [26] was > 100 µM and the TGI [27] was > 100 µM. For the same compound, the TGI [28] was > 100 µM, the TGI [29] was > 100 µM and the TGI [30] was > 100 µM. For the same compound, the TGI [31] was > 100 µM, the TGI [32] was > 100 µM and the TGI [33] was > 100 µM. For the same compound, the TGI [34] was > 100 µM, the TGI [35] was > 100 µM and the TGI [36] was > 100 µM. The TGI [37] was > 100 µM, the TGI [38] was > 100 µM and the TGI [39] was > 100 µM. The TGI [40] was > 100 µM, the TGI [41] was > 100 µM and the TGI [42] was > 100 µM. For the same compound, the TGI [43] was > 100 µM, the TGI [44] was > 100 µM and the TGI [45] was > 100 µM. For the same compound, the TGI [46] was > 100 µM, the TGI [47] was > 100 µM and the TGI [48] was > 100 µM. For the same compound, the TGI [49] was > 100 µM, the TGI [50] was > 100 µM and the TGI [51] was > 100 µM. The TGI [52] was > 100 µM, the TGI [53] was > 100 µM and the TGI [54] was > 100 µM.
With `C=C(C)C(=O)OC1CC2=CC(CC3(C)OC3C3OC(=O)C(=C)C13)OC2=O` (centres undefined) the TGI [1] was 19 µM, the TGI [2] was 5.17 µM and the TGI [3] was 4.18 µM. It also gave a TGI [4] of 17.3 µM, a TGI [55] of 15 µM and a TGI [5] of 26.4 µM. The TGI [6] was 13.7 µM, the TGI [7] was 38.8 µM and the TGI [8] was 15.7 µM. The TGI [9] was 28.5 µM, the TGI [10] was 32.7 µM and the TGI [11] was 26.2 µM. The TGI [12] was 34.6 µM, the TGI [13] was 34.8 µM and the TGI [14] was 26.2 µM. It also gave a TGI [56] of 33.9 µM, a TGI [15] of 30.9 µM and a TGI [16] of 26.8 µM. It also gave a TGI [17] of 32.1 µM, a TGI [18] of 5.94 µM and a TGI [19] of 9.37 µM. It also gave a TGI [20] of 18.1 µM, a TGI [21] of 20.2 µM and a TGI [22] of 36.5 µM. For the same compound, the GI50 [23] was 1.63 µM, the TGI [23] was 5.59 µM and the TGI [24] was 15.3 µM. It also gave a TGI [57] of 22.6 µM, a TGI [25] of 17.1 µM and a TGI [26] of 22 µM. For the same compound, the TGI [27] was 30.3 µM, the TGI [28] was 8.99 µM and the TGI [29] was 16.7 µM. The TGI [58] was 37.1 µM, the TGI [59] was 44.3 µM and the GI50 [30] was 0.749 µM. For the same compound, the TGI [31] was 13.3 µM, the TGI [32] was 28.3 µM and the TGI [33] was 25.4 µM. For the same compound, the TGI [34] was 30.5 µM, the TGI [35] was 7.08 µM and the TGI [60] was 25 µM. The TGI [36] was 31 µM, the TGI [37] was 34.1 µM and the TGI [38] was 20.5 µM. For the same compound, the TGI [39] was 5.03 µM, the TGI [61] was 28.1 µM and the TGI [40] was 30.2 µM. For the same compound, the TGI [41] was 47.3 µM, the TGI [62] was 14.7 µM and the GI50 [42] was 2.62 µM. For the same compound, the TGI [42] was 9.8 µM, the TGI [43] was 15.4 µM and the GI50 [44] was 0.865 µM. The TGI [44] was 2.75 µM, the TGI [45] was 7.35 µM and the TGI [46] was 18.3 µM. For the same compound, the TGI [63] was 35.8 µM, the TGI [47] was 32.5 µM and the TGI [64] was 30.9 µM. The TGI [48] was 33.3 µM, the TGI [49] was 35.1 µM and the TGI [50] was 12.7 µM. For the same compound, the TGI [65] was 30.2 µM, the TGI [51] was 41.9 µM and the TGI [52] was 39 µM. It also gave a TGI [53] of 29.9 µM, a TGI [54] of 36.8 µM and a TGI [66] of 51.8 µM.
For `Cc1ccc(S(=O)(=O)NNC(=O)c2sc(-c3nc(C)c(C(=O)NNS(=O)(=O)c4ccc(C)cc4)s3)nc2C)cc1`, the TGI [1] was > 100 µM, the TGI [2] was > 100 µM and the TGI [4] was > 100 µM. For the same compound, the TGI [55] was > 100 µM, the TGI [5] was > 100 µM and the TGI [6] was > 100 µM. The TGI [7] was > 100 µM, the TGI [9] was > 100 µM and the TGI [10] was > 100 µM. For the same compound, the TGI [11] was > 100 µM, the TGI [12] was > 100 µM and the TGI [13] was > 100 µM. For the same compound, the TGI [14] was 99.7 µM, the TGI [56] was > 100 µM and the TGI [15] was > 100 µM. For the same compound, the TGI [16] was > 100 µM, the TGI [17] was > 100 µM and the TGI [18] was > 100 µM. The TGI [19] was > 100 µM, the TGI [20] was > 100 µM and the TGI [21] was > 100 µM. For the same compound, the TGI [22] was > 100 µM, the TGI [23] was > 100 µM and the TGI [24] was > 100 µM. The TGI [25] was > 100 µM, the TGI [26] was > 100 µM and the TGI [28] was > 100 µM. The TGI [29] was > 100 µM, the TGI [30] was > 100 µM and the TGI [31] was > 100 µM. For the same compound, the TGI [33] was > 100 µM, the TGI [34] was > 100 µM and the TGI [35] was > 100 µM. The TGI [36] was > 100 µM, the TGI [38] was > 100 µM and the TGI [39] was > 100 µM. The TGI [40] was > 100 µM, the TGI [41] was > 100 µM and the TGI [42] was > 100 µM. The TGI [43] was > 100 µM, the TGI [44] was > 100 µM and the TGI [45] was > 100 µM. The TGI [46] was > 100 µM, the TGI [47] was > 100 µM and the TGI [64] was > 100 µM. For the same compound, the TGI [48] was > 100 µM, the TGI [49] was > 100 µM and the TGI [50] was > 100 µM. For the same compound, the TGI [51] was > 100 µM, the TGI [52] was > 100 µM and the TGI [54] was > 100 µM.
